Test system: MDA-MB-468 spheroids with HUVEC/MSC, viability
Experiment: Anticancer human tumor MDA-MB-468 cell line growth inhibition [PI3K];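 note: spheroids exposed to agents for seven days before readout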;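 for viability, T/C: 100% = DMSO vehicle control viability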
Details: for viability, T/C: stronger effect = lower value
Procedure, shortened: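 Three cell types, namely tumor cells, endothelial cells and mesenchymal stem cells, formed each spheroid. Combinations with four PI3K inhibitors were screened at clinically achievable concentrations decreasing by half-log, and spheroid viability was recorded.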

[1] = curve of first compound, second compound 0.0316 µM
[2] = curve of first compound, second compound 0.1 µM
[3] = curve of first compound, second compound 0.316 µM
[4] = curve of first compound, second compound 1 µM
[5] = curve of first compound, second compound 3.16 µM
[6] = curve of first compound, second compound 10 µM
[7] = second compound 0.0316 µM, first compound 0.0316 µM
[8] = second compound 0.0316 µM, first compound 0.1 µM
[9] = second compound 0.0316 µM, first compound 0.316 µM
[10] = second compound 0.0316 µM, first compound 1 µM
[11] = second compound 0.0316 µM, first compound 3.16 µM
[12] = second compound 0.0316 µM, first compound 10 µM
[13] = second compound 0.1 µM, first compound 0.0316 µM
[14] = second compound 0.1 µM, first compound 0.1 µM
[15] = second compound 0.1 µM, first compound 0.316 µM
[16] = second compound 0.1 µM, first compound 1 µM
[17] = second compound 0.1 µM, first compound 3.16 µM
[18] = second compound 0.1 µM, first compound 10 µM
[19] = second compound 0.316 µM, first compound 0.0316 µM
[20] = second compound 0.316 µM, first compound 0.1 µM
[21] = second compound 0.316 µM, first compound 0.316 µM
[22] = second compound 0.316 µM, first compound 1 µM
[23] = second compound 0.316 µM, first compound 3.16 µM
[24] = second compound 0.316 µM, first compound 10 µM
[25] = second compound 1 µM, first compound 0.0316 µM
[26] = second compound 1 µM, first compound 0.1 µM
[27] = second compound 1 µM, first compound 0.316 µM
[28] = second compound 1 µM, first compound 1 µM
[29] = second compound 1 µM, first compound 3.16 µM
[30] = second compound 1 µM, first compound 10 µM
[31] = second compound 3.16 µM, first compound 0.0316 µM
[32] = second compound 3.16 µM, first compound 0.1 µM
[33] = second compound 3.16 µM, first compound 0.316 µM
[34] = second compound 3.16 µM, first compound 1 µM
[35] = second compound 3.16 µM, first compound 3.16 µM
[36] = second compound 3.16 µM, first compound 10 µM
[37] = second compound 10 µM, first compound 0.0316 µM
[38] = second compound 10 µM, first compound 0.1 µM
[39] = second compound 10 µM, first compound 0.316 µM
[40] = second compound 10 µM, first compound 1 µM
[41] = second compound 10 µM, first compound 3.16 µM
[42] = second compound 10 µM, first compound 10 µM

Compound: CC1(C)CCC(CN2CCN(c3ccc(C(=O)NS(=O)(=O)c4ccc(NCC5CCOCC5)c([N+](=O)[O-])c4)c(Oc4cnc5[nH]ccc5c4)c3)CC2)=C(c2ccc(Cl)cc2)C1 + Cc1nc(NC(=O)N2CCCC2C(N)=O)sc1-c1ccnc(C(C)(C)C(F)(F)F)c1
- IC50 [1]: 4.01 µM
- IC50 [2]: 4.59 µM
- IC50 [3]: 3.26 µM
- IC50 [4]: 3.8 µM
- IC50 [5]: 2.12 µM
- IC50 [6]: < 0.0316 µM
- viability, T/C [7]: 93.8%
- viability, T/C [8]: 110%
- viability, T/C [9]: 85.9%
- viability, T/C [10]: 103%
- viability, T/C [11]: 61%
- viability, T/C [12]: 8.14%
- viability, T/C [13]: 85.3%
- viability, T/C [14]: 92.4%
- viability, T/C [15]: 80.2%
- viability, T/C [16]: 104%
- viability, T/C [17]: 69.9%
- viability, T/C [18]: 8.59%
- viability, T/C [19]: 110%
- viability, T/C [20]: 105%
- viability, T/C [21]: 97.5%
- viability, T/C [22]: 88.7%
- viability, T/C [23]: 50.2%
- viability, T/C [24]: 7.04%
- viability, T/C [25]: 99.7%
- viability, T/C [26]: 72.3%
- viability, T/C [27]: 99.9%
- viability, T/C [28]: 85.4%
- viability, T/C [29]: 58.1%
- viability, T/C [30]: 7.9%
- viability, T/C [31]: 77.8%
- viability, T/C [32]: 61.8%
- viability, T/C [33]: 54%
- viability, T/C [34]: 66.3%
- viability, T/C [35]: 43.3%
- viability, T/C [36]: 9.97%
- viability, T/C [37]: 35.2%
- viability, T/C [38]: 27.1%
- viability, T/C [39]: 35.2%
- viability, T/C [40]: 32.4%
- viability, T/C [41]: 24.9%
- viability, T/C [42]: 8.18%

Compound: Cc1nc(NC(=O)N2CCCC2C(N)=O)sc1-c1ccnc(C(C)(C)C(F)(F)F)c1 (stereo unspecified)
- viability, T/C (compound 0.0316 µM): 89% [middle of 8 runs]
- viability, T/C (compound 0.1 µM): 83.7% [middle of 8 runs]
- viability, T/C (compound 0.316 µM): 81.1% [middle of 8 runs]
- viability, T/C (compound 1 µM): 77.9% [middle of 8 runs]
- viability, T/C (compound 3.16 µM): 70.2% [middle of 7 runs]
- viability, T/C (compound 10 µM): 44.1% [middle of 8 runs]

Compound: Cn1cnc2c(F)c(Nc3ccc(Br)cc3Cl)c(C(=O)NOCCO)cc21 + CC(Nc1ccc2c(c1)OCCn1cc(N3C(=O)OCC3C(F)F)nc1-2)C(N)=O
- IC50 (curve of first compound, second compound 0.00316 µM): > 3 µM
- IC50 (curve of first compound, second compound 0.01 µM): > 3 µM
- IC50 [1]: > 3 µM
- IC50 [2]: > 3 µM
- IC50 [3]: > 3 µM
- IC50 [4]: 1.52 µM
- viability, T/C (second compound 0.00316 µM, first compound 0.00949 µM): 83.2%
- viability, T/C (second compound 0.00316 µM, first compound 0.03 µM): 78.1%
- viability, T/C (second compound 0.00316 µM, first compound 0.0949 µM): 81.8%
- viability, T/C (second compound 0.00316 µM, first compound 0.3 µM): 92.6%
- viability, T/C (second compound 0.00316 µM, first compound 0.949 µM): 87.3%
- viability, T/C (second compound 0.00316 µM, first compound 3 µM): 56.7%
- viability, T/C (second compound 0.01 µM, first compound 0.00949 µM): 80%
- viability, T/C (second compound 0.01 µM, first compound 0.03 µM): 88.9%
- viability, T/C (second compound 0.01 µM, first compound 0.0949 µM): 79.9%
- viability, T/C (second compound 0.01 µM, first compound 0.3 µM): 90.4%
- viability, T/C (second compound 0.01 µM, first compound 0.949 µM): 73.9%
- viability, T/C (second compound 0.01 µM, first compound 3 µM): 61.9%
- viability, T/C (second compound 0.0316 µM, first compound 0.00949 µM): 103%
- viability, T/C (second compound 0.0316 µM, first compound 0.03 µM): 86.4%
- viability, T/C (second compound 0.0316 µM, first compound 0.0949 µM): 86.3%
- viability, T/C (second compound 0.0316 µM, first compound 0.3 µM): 83%
- viability, T/C (second compound 0.0316 µM, first compound 0.949 µM): 63.9%
- viability, T/C (second compound 0.0316 µM, first compound 3 µM): 58.6%
- viability, T/C (second compound 0.1 µM, first compound 0.00949 µM): 91.3%
- viability, T/C (second compound 0.1 µM, first compound 0.03 µM): 73.5%
- viability, T/C (second compound 0.1 µM, first compound 0.0949 µM): 70.5%
- viability, T/C (second compound 0.1 µM, first compound 0.3 µM): 77.5%
- viability, T/C (second compound 0.1 µM, first compound 0.949 µM): 66.7%
- viability, T/C (second compound 0.1 µM, first compound 3 µM): 48.9%
- viability, T/C (second compound 0.316 µM, first compound 0.00949 µM): 81.3%
- viability, T/C (second compound 0.316 µM, first compound 0.03 µM): 78.6%
- viability, T/C (second compound 0.316 µM, first compound 0.0949 µM): 64.4%
- viability, T/C (second compound 0.316 µM, first compound 0.3 µM): 67%
- viability, T/C (second compound 0.316 µM, first compound 0.949 µM): 64.1%
- viability, T/C (second compound 0.316 µM, first compound 3 µM): 48.9%
- viability, T/C (second compound 1 µM, first compound 0.00949 µM): 79.4%
- viability, T/C (second compound 1 µM, first compound 0.03 µM): 63.7%
- viability, T/C (second compound 1 µM, first compound 0.0949 µM): 77%
- viability, T/C (second compound 1 µM, first compound 0.3 µM): 69.7%
- viability, T/C (second compound 1 µM, first compound 0.949 µM): 55.1%
- viability, T/C (second compound 1 µM, first compound 3 µM): 39%

Compound: Cn1nccc1Nc1nccc(-c2ccn(C(CO)c3ccc(Cl)c(F)c3)c(=O)c2)n1 (stereo unspecified)
- viability, T/C (compound 0.0316 µM): 92.3% [middle of 4 runs]
- viability, T/C (compound 0.1 µM): 92.9% [middle of 4 runs]
- viability, T/C (compound 0.316 µM): 101% [middle of 4 runs]
- viability, T/C (compound 10 µM): 81.9% [middle of 4 runs]
- IC50 (curve of compound): > 10 µM

Compound: CC(=O)c1c(C)c2cnc(Nc3ccc(N4CCNCC4)cn3)nc2n(C2CCCC2)c1=O
- viability, T/C (compound 0.000316 µM): 106% [middle of 4 runs]
- viability, T/C (compound 0.001 µM): 93.5% [middle of 4 runs]
- viability, T/C (compound 0.00316 µM): 110% [middle of 4 runs]
- viability, T/C (compound 0.01 µM): 91% [middle of 4 runs]
- viability, T/C (compound 0.0316 µM): 99.3% [middle of 4 runs]
- viability, T/C (compound 0.1 µM): 97.2% [middle of 4 runs]
- IC50 (curve of compound): > 0.1 µM

Compound: CC(Nc1ncnc2nc[nH]c12)c1cc2cccc(Cl)c2c(=O)n1-c1ccccc1 (stereo unspecified)
- viability, T/C (compound 0.0316 µM): 94% [middle of 8 runs]
- viability, T/C (compound 0.1 µM): 93.1% [middle of 8 runs]
- viability, T/C (compound 0.316 µM): 81% [middle of 8 runs]
- viability, T/C (compound 1 µM): 71.2% [middle of 8 runs]
- viability, T/C (compound 3.16 µM): 55.5% [middle of 8 runs]
- viability, T/C (compound 10 µM): 40.7% [middle of 8 runs]
- IC50 (compound alone, run of 05/09/2023): 4.95 µM [middle of 8 runs]

Compound: Cn1nccc1Nc1nccc(-c2ccn(C(CO)c3ccc(Cl)c(F)c3)c(=O)c2)n1 (stereo unspecified) + Cc1nc(NC(=O)N2CCCC2C(N)=O)sc1-c1ccnc(C(C)(C)C(F)(F)F)c1
- IC50 [1]: > 10 µM
- IC50 [2]: > 10 µM
- IC50 [3]: > 10 µM
- IC50 [4]: > 10 µM
- IC50 [5]: 1.6 µM
- IC50 [6]: < 0.0316 µM
- viability, T/C [7]: 88.7%
- viability, T/C [8]: 85.4%
- viability, T/C [9]: 84%
- viability, T/C [10]: 116%
- viability, T/C [11]: 107%
- viability, T/C [12]: 63.3%
- viability, T/C [13]: 92.2%
- viability, T/C [14]: 94.9%
- viability, T/C [15]: 81.7%
- viability, T/C [16]: 93.3%
- viability, T/C [17]: 113%
- viability, T/C [18]: 53.8%
- viability, T/C [19]: 103%
- viability, T/C [20]: 112%
- viability, T/C [21]: 95.9%
- viability, T/C [22]: 109%
- viability, T/C [23]: 61.1%
- viability, T/C [24]: 63.8%
- viability, T/C [25]: 81.3%
- viability, T/C [26]: 75.6%
- viability, T/C [27]: 80.4%
- viability, T/C [28]: 67.3%
- viability, T/C [29]: 62.9%
- viability, T/C [30]: 53.9%
- viability, T/C [31]: 82.3%
- viability, T/C [32]: 64.1%
- viability, T/C [33]: 63.4%
- viability, T/C [34]: 59.7%
- viability, T/C [35]: 42.3%
- viability, T/C [36]: 32.3%
- viability, T/C [37]: 39.6%
- viability, T/C [38]: 24.8%
- viability, T/C [39]: 29.6%
- viability, T/C [40]: 20.2%
- viability, T/C [41]: 17.6%
- viability, T/C [42]: 14.5%
